Experimental data as given in patent US6878522B2, “Methods for the identification of compounds useful for the treatment of disease states mediated by prostaglandin D2” (priority 2000, dated 2005).

What was measured:
[1] = biological target: T1, CRTH2 (Homo sapiens, UniProt Q9Y5Y4); assay: Competition with 3H-PGD2 binding at the CRTH2 receptor (Examples 6-9); details: from IC50 at CRTH2 and at DP
T1 construct: prolactin (prolac) signal peptide (N); expressed in transfected cells; host or cells: 300-19 cells (transformed murine pre-B lymphocytes)
T1 sequence (Q9Y5Y4 1-395): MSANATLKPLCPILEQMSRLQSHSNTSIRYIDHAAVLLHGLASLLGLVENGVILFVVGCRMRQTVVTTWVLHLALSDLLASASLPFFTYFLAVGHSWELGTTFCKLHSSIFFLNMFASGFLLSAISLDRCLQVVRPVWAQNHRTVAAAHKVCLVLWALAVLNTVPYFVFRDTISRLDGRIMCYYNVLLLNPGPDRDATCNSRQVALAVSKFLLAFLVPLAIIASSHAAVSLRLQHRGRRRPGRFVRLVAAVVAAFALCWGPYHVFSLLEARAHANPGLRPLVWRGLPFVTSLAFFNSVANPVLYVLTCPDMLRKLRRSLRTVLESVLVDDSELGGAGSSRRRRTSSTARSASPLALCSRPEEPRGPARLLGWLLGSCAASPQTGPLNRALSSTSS
Description: To directly determine the binding affinity of CRTH2 for PGD2, the following binding assay was used. Transfected and parental 300-19 cells were washed twice at room temperature with assay buffer, and resuspended at a concentration of 2×10^7 cells/ml. Using a 96-well U-bottom polypropylene plate (Costar, Corning Inc., Acton, Mass.), the assay was set up as follows: 50 μl of vehicle (0.3% DMSO in assay buffer, total wells) or of […] cold PGD2 (NS wells); 50 μl cells (2×10^7 cells/ml for 10^6 cells per well); 50 μl 6 nM [3H]-PGD2. The plate was allowed to incubate for 20 min at RT before centrifugation (2800 rpm, Sorval RT6000, 5 min, 4° C.). The plate was harvested (Packard Unifilter plate GF/C, previously soaked in 3% PEI for at least 1 hr) with cold assay buffer using a Packard Filtermate Cell Harvester (6×150 μl buffer wash per well). The filterplate was dried overnight. After the addition of 50 μl scintillation fluid (Packard Microscint 0), the plate was counted in a Packard Topcount scintillation counter (1 min per well). […] The solutions of labeled PGD2 and unlabeled “cold” PGD2 were prepared as follows: 10 μl of [^3H]-PGD2 (Amersham lot # TRK734 162 Ci/mmol, 0.1 Ci/ml in methanol: water: acetonitrile (3:2:1), 617 nM) per ml assay buffer was used to prepare a solution of [^3H]-PGD2 at a concentration of 6 nM (50 μl/well for final conc. of 2 nM); cold PGD2 (Biomol #PG-005, lot # P4653) was dissolved in DMSO for a stock of 10 mM (stored at −20° C.). The 10 mM stock was diluted 3:1000 to obtain a final concentration of […] (50 μl/well for final conc. of […]). Assay buffer: Hank's balanced saline supplemented with HEPES and sodium bicarbonate: 100 ml/L of 10× Hank's Balanced saline (with Ca^+2, Mg^+2); 10 ml/L of 1M HEPES; 4.7 ml/L of 7.5% Sodium Bicarbonate.
In the assay, the capacity of each D-ring compound to compete with binding of ^3H-PGD2 was measured at both the CRTH2 and DP receptors, and an IC50 value (in μM) was determined. […] The binding assay procedure of Example 1 was used. Preferably, the ratio of IC50 at CRTH2 to IC50 at DP is less than about twenty, and more preferably is […].

[2] = test system: isolated human eosinophils; assay: [Ca2+]i mobilization in isolated human eosinophils; type: cell-based
Source text: Calcium mobilization can be detected and measured by flow cytometry, and by labeling with fluorescent dyes that are trapped intracellularly. […] The ratio of fluorescence produced by the calcium-bound dye to that produce by the unbound dye is used to estimate the intracellular calcium concentration. In one embodiment, for example, the following method can be used. Cells that express CRTH2 are collected, and resuspended in fresh media at ˜2×10^5/ml the day before performing the calcium flux assay. Cells are incubated at 37° C. for not longer than 20-30 minutes, and then spun down and resuspended in 50 ml fresh PTI buffer (Hank's Buffer, pH 7.2-7.4; 10 mM Hepes; 1.6 mM CaCl2) containing Indo-1 AM, pre-warmed to 37° C., at a concentration of 10 million per ml. Cells are excited, and fluorescence is measured using a fluorimeter (Photon Technology Corporation, International). After the readout has stabilized, the time axis is reset, and PGD2 is added at a specific time point (e.g., 20 seconds). After response, the following reagents are added to the cuvette, to release and chelate total calcium, in the following order: 20 μl of 18% Triton X-100, 20 μl of 3M Tris, pH 8.5, and 20 μl of 0.5 M EGTA, pH 8.5. The experiment is repeated in the presence and the absence of a test compound. […] Therefore, in the presence of an […] test compound, the EC50 would be expected to be higher than this value, whereas in the presence of an agonist test compound, the EC50 would be expected to decrease.

[3] = test system: isolated human eosinophils; assay: Reactive oxygen species (ROS) release in isolated human eosinophils; type: cell-based
Description: Another secondary assay is the reactive oxygen species release assay. One measure of PGD2-induced activation of CRTH2 cells, such as eosinophils, is the intracellular release of reactive oxygen species. This can be tested in a reactive oxygen species release assay, or ROS, using lucigenin-dependent chemiluminescence to measure reactive oxygen species release. In this method, freshly isolated eosinophils are prepared, by standard methods, and resuspended at concentration 2-4×10^6 cells/ml in (RPMI; 10 mM HEPES; 1× Pen/Strep; 0.5% FBS) at room temperature. Immediately prior to use, 1 ml of cell suspension is added to 9 ml of buffer, prewarmed to 37° C. for 15 minutes, and added 0.5 ml of 200 mM Lucigenin.
Test compounds (made as 10,000× DMSO stocks) are diluted in buffer with DMSO (1.5 ul of DMSO/2.5 ml Buffer) and 25 μl/well added to white 96-well culture plate and placed in a 37° C. incubator. Isolated cells (held at room temperature) are diluted with room temperature buffer to 2-4×10^6 cells/ml, and incubated in a water bath at 37° C. for 15 minutes. At 15 minutes, 0.5 ml 200 mM lucigenin (bis-N-Methylacridinium Nitrate; Sigma, St. Louis, Mo.) is added to 10 ml of the cell suspension, mixed, and 100 μl/well is added to the prewarmed microtiter plate. The plate is returned to 37° C. for 5 minutes, at which time 25 μl of stimulus is added) The plate is read in the luminometer for 8 cycles. The luminescence of test compounds can be tested in the presence of PGD2, relative to a control sample containing PGD2 alone. A compound that interferes with the ability of PGD2 to result in intracellular reactive oxygen species release in CRTH2 cells, is a candidate for a CRTH2 antagonist.

[4] = test system: human whole blood eosinophil; assay: Human whole blood eosinophil actin-polymerization response; type: cell-based; details: read-out: Actin-polymer EC50
Source text: Yet another secondary screening assay is an actin polymerization assay. Another biological effect of the interaction of PGD2 with CRTH2 is actin polymerization. Thus, an actin polymerization assay may be used as a secondary screen to characterize the activity of a compound isolated in the primary screening assays of the invention. In one embodiment, actin polymerization may be assayed using an actin-specific fluorescent label, nitrobenzoxadiazole (NBD)-phallacidin, which binds polymerized actin fiber. In a specific embodiment, the assay may be performed as follows: cell preparations are resuspended at 5-10×10^6 cells/ml in RPMI 1640 plus 10 mM HEPES, 100/10 Pen/Strep, and 0.5% FCS. The cell suspension is aliquoted (100 μL per well) into a 96-well U-bottom polypropylene microtiter plate. 50 ul of the appropriate stimulus (PGD2 or test compound, or both PGD2 and test compound) is added using an 8-channel pipette followed exactly 25 seconds later by 50 ul of a stopping solution which contains lysophosphotidylcholine (0.5 mg/ml), Hank's balanced salt solution (100 ul 10×), 16% formaldehyde (800 ul), and 6.6 uM NBD-phallacidin in MEOH (100 ul). The plate is allowed to sit at room temperature for 15 minutes. The plate is then centrifuged at 1000 rpm for 5 minutes, the supernatants flicked off and the cell pellets resuspended in 250 ul PBS plus 2%FCS and 0.2% sodium azide. Each sample is then read on a FACS Caliber instrument. Cells are gated using the forward scatter/side scatter data in the lymphocyte area. Responses are measured by the change in median FL-1 fluorescence between vehicle treated cells and stimulus treated cells. Test compounds can be assayed in the presence and absence of PGD2, and compared to a sample containing PGD2 alone. A compound that reduces PGD2-induced actin polymerization of CRTH2 cells is identified as a candidated CRTH2 antagonist.

[5] = test system: isolated human eosinophils; assay: Chemotaxis of isolated human eosinophils; type: cell-based
Description: In a specific example of this method, a competitive assay is performed to test compounds for their ability to interrupt the attraction of CRTH2 cells to PGD2. In this method, test compounds are diluted into the bottom wells of the Boyden chemotaxis chamber. A constant amount of PGD2 is also added to this dilution series, at a concentration known to have a chemotactic effect on CRTH2 cells. As a control, at least one aliquot contains only PGD2. Cells expressing CRTH2 are resuspended at 3-3.5×10^6 cells/ml in RPMI 1640 supplemented with 10 mM HEPES and 1 mg/ml bovine serum albumin (Sigma, St. Louis, Mo.), and placed into the upper wells of the chamber. The chambers are incubated for 90-120 minutes at 37° C. in a humidified CO2 incubator. After the incubation period, the number of migrating cells on the lower surface of the membrane filter is counted using light microscopy. The contribution of the test compound to the chemotactic activity of PGD2 is measured by comparing the chemotactic activity of the aliquots containing only PGD2 with the activity of aliquots containing test compound and PGD2. If addition of the test compound to the PGD2 solution results in a […] in the number of cells detected on the lower surface of the membrane relative to the number of cells detected using a solution containing only PGD2, then there is identified an antagonist of PGD2 induction of chemotactic activity of cells expressing CRTH2. In contrast, if the addition of the test compound to the PGD2 solution results in a […] in the number of cells detected on the lower surface of the membrane (relative to the number of cells detected using a solution containing only PGD2), then an […] of PGD2 induction of chemotactic activity of cells expressing CRTH2 is identified.
The chemotactic response of human T lymphocytes to PGD2, murine MDC and murine mSDF was also assayed. Chemotaxis was determined using a 48-well Boyden chamber (Neuroprobe, Cabin John, Md.), and 3.0 μm polycarbonate filters. Cells were resuspended (3-3.5×10^6 cells/ml) in RPMI 1640 supplemented with 10 mM HEPES and 1 mg/ml bovine serum albumin (Sigma, St. Louis, Mo.), and placed into the upper wells of the chamber. The compound to be tested was placed in the lower wells. The chambers were incubated for 90-120 minutes at 37° C. in a humidified CO2 incubator. At the end of the incubation period, the number of migrating cells on the filter (expressed per high power field) were enumerated microscopically. […] In FIG. 4, the chemotactic response of human basophils to PGD2 and C5a is shown.

[6] = biological target: T1, CRTH2; assay: [Ca2+]i mobilization assay in 300-19 cells expressing CRTH2; type: cell-based; details: CRTH2 stable cell line (300-19 transfectants)
Source text: Using 300-19 cells (transformed pre-B lymphocytes) expressing CRTH2, a number of mast cell and non-mast cell-derived mediators were screened in a [Ca^2+]i mobilization assay. […]

| Compound | selectivity for the CRTH2 receptor (in comparison with DP) [1] | EC50 [2] | EC50 [3] | EC50 [4] | EC50 [5] | EC50 [6] |
| --- | --- | --- | --- | --- | --- | --- |
| CCCCCC(=O)CCC1C(=O)CC(O)C1C/C=C\CCCC(=O)O (stereo not drawn) [13,14-dihydro-15-keto PGD2] | particularly selective for CRTH2 | – | – | – | – | – |
| CCCCC[C@@](C)(O)/C=C/[C@H]1C(=O)C[C@H](O)[C@@H]1C/C=C\CCCC(=O)O [15(R)15-methyl PGD2] | particularly selective for CRTH2 | – | – | – | – | – |
| CCCCC/C=C\C=C1\C(=O)CC(O)C1C/C=C\CCCC(=O)O (stereo not drawn) [15-deoxy-delta 12, 14, PGD2] | particularly selective for CRTH2 | – | – | – | – | – |
| CCCCC[C@H](O)/C=C/[C@@H]1[C@@H](C/C=C\CCCC(=O)O)[C@H]2CO[C@@H]1C2 [Compound U-46619] | – | > 1000 nM | > 100 nM | – | – | – |
| CCCCC[C@H](O)/C=C/[C@@H]1[C@H]2C/C(=C/CCCC(=O)O)O[C@H]2C[C@H]1O [PG12] | – | > 1000 nM | > 1000 nM | > 100000 nM | > 100 nM | – |
| CCCCC[C@H](O)/C=C/[C@H]1[C@H](O)CC(=O)[C@@H]1CCCCCCC(=O)O [PGE1] | – | > 1000 nM | > 100 nM | > 100000 nM | > 100 nM | – |
| CCCCC[C@H](O)/C=C/[C@@H]1[C@@H](C/C=C\CCCC(=O)O)[C@@H](O)C[C@@H]1O [Pa, 11b-PGF2] | – | – | > 100 nM | > 1000 nM | > 100 nM | – |
| PGJ2 | – | 130 nM | 75 nM | 1800 nM | > 100 nM | 200 nM |
